Reference: patent publication US10363257B2 (ZENITH EPIGENETICS LTD., priority 2013, dated 2019)

Experiments:
[1] = tested on: c-myc; experiment: Inhibition of c-myc expression (mRNA, real-time PCR) in MV4-11 cells; format: cell-based; details: Human AML MV4-11 cells, 3 h, cMYC mRNA
In short: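 MV4-11 cells treated 3 h at 37° C with increasing compound concentrations or 0.1% DMSO, in triplicate. cMYC mRNA quantified by one-step TaqMan real-time PCR, Ct normalized to internal control (Cyclophilin primers used), fold expression relative to control.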

[2] = tested on: human AML MV-4-11 cells; experiment: Inhibition of cell proliferation in MV4-11 cells (CellTiter Aqueous One); format: cell-based; details: for IC50: MV4-11, 72 h
In short: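 Exponentially growing MV-4-11 cells (5×10^4/well) were treated immediately with two-fold dilutions of compound from 30 μM to 0.2 μM, in triplicate, for 72 h at 37° C, 5% CO2. Viability was measured by MTS absorbance at 490 nm after 3–4 h. Proliferation relative to DMSO after blank correction gave IC50.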

[3] = molecular target: T1, Brd4 bromodomain 1 (BRD4(1)) (Homo sapiens, UniProt O60885); experiment: Inhibition of tetra-acetylated histone H4 binding to Brd4 bromodomain 1 (TR-FRET); details: tetra-acetylated histone H4 peptide, first bromodomain of Brd4
T1 construct: made in house; host or cells: E. coli BL21(DE3)
In short: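 His-tagged BRD4(1) from E. coli (200 nM) with biotinylated tetra-acetylated H4 peptide (25-50 nM), Eu-cryptate streptavidin and XL665 anti-His, in HEPES pH 7.4/phosphate/KF buffer, 0.2% DMSO. After 2 h at room temperature, TR-FRET 665/620 nm ratio read; IC50 from dose-response curves.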

[4] = tested on: hIL-6 mRNA; experiment: Inhibition of hIL-6 mRNA transcription in LPS-stimulated U937 cells; format: cell-based; details: Homo sapiens, U-937; PMA-differentiated U937 cells, 1 h pretreatment, 1 ug/mL LPS stimulation, 3 h; read-out: IL-6 activity (Inhibition of hIL-6 mRNA Transcription)
Protocol: In this example, hIL-6 mRNA in tissue culture cells was quantitated to measure the transcriptional inhibition of hIL-6 when treated with a compound of the invention.
Human leukemic monocyte lymphoma U937 cells (CRL-1593.2) were plated at a density of 3.2×10^4 cells per well in a 96-well plate in 100 μL RPMI-1640 containing 10% FBS and penicillin/streptomycin, and differentiated into macrophages for 3 days in 60 ng/mL PMA ([…]) at 37° C. in 5% CO2 prior to the addition of compound. The cells were pretreated for 1 h with increasing concentrations of test compound in 0.1% DMSO prior to stimulation with 1 ug/mL lipopolysaccharide from Escherichia coli. Triplicate wells were used for each concentration. The cells were incubated at 37° C., 5% CO2 for 3 h before the cells were harvested. At time of harvest, media was removed and cells were rinsed in 200 μL PBS. Cells were harvested using the mRNA Catcher PLUS kit according to manufacturer's instructions. The eluted mRNA was then used in a one-step quantitative real-time PCR reaction using components of the RNA UltraSense™ One-Step Kit (Life Technologies) together with Applied Biosystems TaqMan® primer-probes for hIL-6 and Cyclophilin. Real-time PCR plates were run on a VIa™ 7 real time PCR machine (Applied Biosystems), data was analyzed, normalizing the Ct values for hIL-6 to an internal control, prior to determining the fold expression of each sample, relative to the control.

| SMILES | IC50 [1] [nM] | Cell Proliferation activity ([2]; 72 h) | IC50 [3] [nM] | IC50 [4] [nM] | IC50 [2] [nM] |
| --- | --- | --- | --- | --- | --- |
| Cc1noc(C)c1Cn1c(C)nc2ncc(-c3c(C)noc3C)cc21 [Example Compound 60, 4-((6-(3,5-dimethylisoxazol-4-yl)-2-methyl-1H-imidazo[4,5-b]pyridin-1-yl)methyl)-3,5-dimethylisoxazole] | 3000 to 30000 | Not active | 300 to 3000 | 300 to 3000 | – |
| Cc1noc(C)c1-c1cnc2nc(N3CCC3)n(CC3CCCC3)c2c1 [compound 209, 4-(2-(azetidin-1-yl)-1-(cyclopentylmethyl)-1H-imidazo[4,5-b]pyridin-6-yl)-3,5-dimethylisoxazole] | 300 to 3000 | – | ≤ 300 | ≤ 300 | ≤ 300 |
| Cc1noc(C)c1-c1cnc2c(Cl)cn(Cc3ccccc3)c2c1 [compound 89, 4-(1-benzyl-3-chloro-1H-pyrrolo[3,2-b]pyridin-6-yl)-3,5-dimethylisoxazole] | 300 to 3000 | – | ≤ 300 | 300 to 3000 | 300 to 3000 |
| Cc1noc(C)c1-c1cnc2[nH]c(=O)n([C@H](C)c3ccccc3)c2c1 [compound 218, (R)-6-(3,5-dimethylisoxazol-4-yl)-1-(1-phenylethyl)-1H-imidazo[4,5-b]pyridin-2(3H)-one] | 300 to 3000 | – | ≤ 300 | 300 to 3000 | 3000 to 30000 |
| Cc1noc(C)c1-c1cc(N(C)C)c2ncn(Cc3ccc(F)cc3)c2c1 [Example Compound 29, 6-(3,5-dimethylisoxazol-4-yl)-1-(4-fluorobenzyl)-N,N-dimethyl-1H-benzo[d]imidazol-4-amine] | 300 to 3000 | – | ≤ 300 | 300 to 3000 | 300 to 3000 |
| Cc1noc(C)c1-c1cc(Br)c2nc(C)n(Cc3ccccc3)c2c1 [compound 121, 4-(1-benzyl-4-bromo-2-methyl-1H-benzo[d]imidazol-6-yl)-3,5-dimethylisoxazole] | ≤ 300 | – | ≤ 300 | 300 to 3000 | ≤ 300 |
| CNc1nc2c(N)cc(-c3c(C)noc3C)cc2n1Cc1ccccc1 [compound 151, 1-benzyl-6-(3,5-dimethylisoxazol-4-yl)-N2-methyl-1H-benzo[d]imidazole-2,4-diamine] | ≤ 300 | – | ≤ 300 | ≤ 300 | ≤ 300 |
| CC(=O)c1cn(Cc2ccccc2)c2cc(-c3c(C)noc3C)cnc12 [Example Compound 36, 1-(1-benzyl-6-(3,5-dimethylisoxazol-4-yl)-1H-pyrrolo[3,2-b]pyridin-3-yl)ethanone] | 300 to 3000 | – | ≤ 300 | 300 to 3000 | 300 to 3000 |
| CNC(=O)c1nc2ncc(-c3c(C)noc3C)cc2n1Cc1ccccc1 [compound 221, 1-benzyl-6-(3,5-dimethylisoxazol-4-yl)-N-methyl-1H-imidazo[4,5-b]pyridine-2-carboxamide] | 300 to 3000 | – | ≤ 300 | 300 to 3000 | 300 to 3000 |
| Cc1noc(C)c1-c1cnc2c([N+](=O)[O-])cn(Cc3ccccc3)c2c1 [Example Compound 39, 4-(1-benzyl-3-nitro-1H-pyrrolo[3,2-b]pyridin-6-yl)-3,5-dimethylisoxazole] | 300 to 3000 | – | ≤ 300 | 300 to 3000 | 300 to 3000 |
| Cc1noc(C)c1-c1cnc2nc(C)n(Cc3ccc(Cl)s3)c2c1 [compound 77, 4-(1-((5-chlorothiophen-2-yl)methyl)-2-methyl-1H-imidazo[4,5-b]pyridin-6-yl)-3,5-dimethylisoxazole] | 300 to 3000 | – | ≤ 300 | 300 to 3000 | 300 to 3000 |
| Cc1noc(C)c1-c1cnc2cnn(Cc3ccc(Cl)cc3)c2c1 [compound 93, 4-(1-(4-chlorobenzyl)-1H-pyrazolo[4,3-b]pyridin-6-yl)-3,5-dimethylisoxazole] | 3000 to 30000 | – | ≤ 300 | 300 to 3000 | 3000 to 30000 |
